Where two headings read alike, the source gives them in different places.
Columns and labels:
JAK1 = JAK1 (Homo sapiens (Human), UniProt P23458); test: JAK1 Ki determination assay (polyGT, 33P filter plate); format: biochemical; details: Lineweaver-Burk; polyGT substrate, 33P readout
Method: For the determination of Ki, different amounts of inhibitor were mixed with the enzyme and the enzymatic reaction was followed as a function of ATP concentration. The Ki was determined by means of double reciprocal plotting of Km vs compound concentration (Lineweaver-Burk plot). JAK1 (Invitrogen, PV4774) was used at a final concentration of 500 ng/ml. […] Measurement of incorporated phosphate into the substrate polyGT was done by loading the samples on a filter plate (using a harvester, Perkin Elmer) and subsequent washing. Incorporated ^33P in polyGT is measured in a Topcount scintillation counter after addition of scintillation liquid to the filter plates (Perkin Elmer).

[1] = test system: JAK1 dependent pathway (IFNα induced pSTAT1) in human whole blood; test: Whole blood assay, IFNα stimulation, Phospho-STAT1 ELISA; format: cell-based; details: for IC50: Homo sapiens, 6 blood donors, ± SEM, read-out: pIC50 for inhibiting the INFα induced increase of pSTAT1 levels (converted)
Method: The pH of the buffer was 7.3.
Proteinase inhibitors were added to the buffer before use.
The stock solution was stored at −20° C.
Human blood was collected in heparinized tubes. The blood was divided in aliquots of 392 μL.
The samples were incubated on ice for 15 min.
The cellular extracts were thawed on ice. […] The strips were incubated overnight at 4° C.
Absorbance was measured at 450 nm.

[2] = test system: collagen induced arthritis; test: Rat collagen induced arthritis (CIA) model; format: in vivo
Method: Completed Freund's adjuvant (CFA) and incomplete Freund's adjuvant (IFA) were purchased from Difco. Bovine collagen type II (CII), lipopolysaccharide (LPS), and Enbrel were obtained from Chondrex (Isle d'Abeau, France); Sigma (P4252, L'Isle d'Abeau, France), Whyett (25 mg injectable syringe, France) Acros Organics (Palo Alto, Calif.), respectively. All other reagents used were of reagent grade and all solvents were of analytical grade.
Dark Agouti rats (male, 7-8 weeks old) are obtained from Harlan Laboratories (Maison-Alfort, France). DBA/1J mice (male, 7 weeks old) were obtained from Centre d'Elevage et de Reproduction JANVIER (CERJ) (Laval, France). Rats and mice were kept on a 12 hours light/dark cycle (0700-1900). The temperature was maintained at 22° C., and food and water were provided ad libitum.
One day before the experiment, CII solution (2 mg/mL) was prepared with 0.05 M acetic acid and stored at 4° C. Just before the immunization, equal volumes of adjuvant (IFA) and CII were mixed by a homogenizer in a pre-cooled glass bottle in an ice water bath. Extra adjuvant and prolonged homogenization might be required if an emulsion is not formed.
Rat: 0.2 mL of the emulsion is injected intradermally at the base of the tail of each rat on day 1, a second booster intradermal injection (CII solution at 2 mg/mL in CFA 0.1 mL saline) is performed on day 9. This immunization method is modified from published methods (Sims N A et al., (2004) Targeting osteoclasts with zoledronic acid prevents bone destruction in collagen-induced arthritis, Arthritis Rheum. 50 2338-2346; Jou et al., 2005).
The therapeutic effects of the test compounds were tested in the rat or mouse CIA model. Animals were randomly divided into equal groups and each group contained 10 animals. All rats are immunized on day 1 and boosted on day 9. All mice were immunized on day 1 and boosted on day 21. Therapeutic dosing lasted from day 16 to day 30. The negative control group was treated with vehicle (MC 0.5%) and the positive control group with Enbrel (10 mg/kg, 3× week., s.c.). A compound of interest was typically tested at 3 doses, e.g. 3, 10, 30 mg/kg, p.o.
Arthritis was scored according the method of Khachigian 2006, Lin et al 2007 and Nishida et al. 2004). […]
AUC of clinical score (AUC score): The area under the curve (AUC) from day 1 to day 14 was calculated for each individual rat. The AUC of each animal was divided by the average AUC obtained for the vehicle in the study from which the data on that animal was obtained and multiplied by 100 (i.e. the AUC was expressed as a percentage of the average vehicle AUC per study).
Clinical score increase from day 1 to day 14 (End point score): The clinical score difference for each animal was divided by the average clinical score difference obtained for the vehicle in the study from which the data on that animal was obtained and multiplied by 100 (i.e. the difference was expressed as a percentage of the average clinical score difference for the vehicle per study).
Post-mortem, a Larsen' score was derived for both hind paws of all rats by at least 2 scientists. The average of these scores was calculated to obtain one Larsen' score per rat. […]

TNF release = test: Septic shock model (LPS induced TNF release); format: in vivo, mouse; details: 30 mg/kg po, LPS ip, statistically significant
Method: Injection of lipopolysaccharide (LPS) induces a rapid release of soluble tumour necrosis factor (TNF-alpha) into the periphery. This model is used to analyse prospective blockers of TNF release in vivo.
Six BALB/cJ female mice (20 g) per group are treated at the intended dosing once, po. Thirty minutes later, LPS (15 μg/kg; E. Coli serotype 0111:B4) is injected ip. Ninety minutes later, mice are euthanized and blood is collected. Circulating TNF alpha levels are determined using commercially available ELISA kits. Dexamethasone (5 μg/kg) is used as a reference anti-inflammatory compound. Selected compounds are tested at one or multiple doses, e.g. 3 and/or 10 and/or 30 mg/kg, po.

JAK1, sequence (P23458 866-1154): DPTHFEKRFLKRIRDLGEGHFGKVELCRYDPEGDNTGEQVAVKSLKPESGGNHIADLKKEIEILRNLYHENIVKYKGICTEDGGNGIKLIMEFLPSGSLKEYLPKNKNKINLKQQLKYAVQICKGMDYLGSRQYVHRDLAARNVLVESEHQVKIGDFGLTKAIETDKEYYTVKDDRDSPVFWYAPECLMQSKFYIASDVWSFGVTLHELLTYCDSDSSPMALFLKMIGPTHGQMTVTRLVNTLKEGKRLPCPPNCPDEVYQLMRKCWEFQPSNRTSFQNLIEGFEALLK

Question: Which Ki (JAK1) does the source give for `CC1(C)CN(C(=O)c2ccc(-c3cccc4nc(NC(=O)C5CC5)nn34)cc2)C1` [Compound 1, Cyclopropanecarboxylic acid{5-[4-(3,3-dimethyl-azetidine-1-carbonyl)-phenyl]-[1,2,4]triazolo[1,5-a]pyridin-2-yl}-amide] here?
Answer: The Ki was 0.0069 µM.

Question: And the IC50 ([1]; additional data analysis protocol (R2 > 0.8, hill slope < 3))?
Answer: Its IC50 is 0.617 µM.

Question: What about the IC50 ([1]; human whole blood) of the same compound?
Answer: Its IC50 is 0.479 µM.

Question: What about the “selectivity for the JAK1 pathway versus the JAK2 pathway” value ([1]; IFNα pSTAT1 vs GM-CSF IL-8, human whole blood) of the same compound?
Answer: Its value is 28 fold.

Question: What about the “selectivity for the JAK1 pathway versus the JAK2 pathway” value ([1]; additional data analysis protocol, IFNα pSTAT1 vs GM-CSF IL-8) of the same compound?
Answer: Its value is 17.6 fold.

Question: What about the “dose from which significant improvement of paw swelling was seen” value ([2]; rat CIA) of the same compound?
Answer: The value was at least 1 mg/kg.

Question: What about the “dose from which significant improvement of the AUC of the clinical score was seen” value ([2]; rat CIA) of the same compound?
Answer: Its value is at least 10 mg/kg.

Question: What about the “dose from which significant improvement of the Larsen' score was seen” value ([2]; rat CIA) of the same compound?
Answer: Its value is at least 30 mg/kg.

Question: And the “dose from which significant improvement of the endpoint clinical score was seen” value ([2]; rat CIA)?
Answer: Its value is at least 1 mg/kg.

Question: What about the “efficacy in the rat CIA study” value ([2]; rat, 30, 10, 3, and 1 mg/kg) of the same compound?
Answer: Its value is “efficacious in all readouts”.

Question: And the “reduction in the TNF release” value (TNF release)?
Answer: The value was over 50%.

From patent publication US8796457B2, “Compound useful for the treatment of degenerative and inflammatory diseases” (Galapagos NV, priority 2009, dated 2014)
